Assay results from patent US20240190855A1 (Relay Therapeutics, Inc., priority 2021, published 2024).

Molecular target: T1, CDK2/Cyclin E complex (Homo sapiens, UniProt P24941)
T1 construct: purchased Eurofins 14-475
Assay: CDK2/Cyclin E fluorescence-based microfluidic mobility shift assay (CDK2 Biochemical Caliper Assay)
Conditions: read-out: Biochemical CDK2/CyclinE Caliper IC50
Procedure, shortened: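 Wild-type CDK2/Cyclin E was preincubated with compound and ATP for 30 min at RT before the 5-FAM-QSPKKG peptide was added. Final concentrations were 0.1 nM enzyme, 2000 uM ATP, 1.5 uM peptide and 1% DMSO. After 20 hr at RT and EDTA stop, substrate conversion was read by microfluidic mobility shift over an 11-point, 3-fold dilution series.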

Row | Compound | IC50
1 | Cc1cc(CC(=O)Nc2cc([C@H]3CC[C@@H](OC(N)=O)C3)[nH]n2)on1 (racemic) [Example 4] | 0.25 to 1 µM
2 | Cc1cc(CC(=O)Nc2cc([C@@H]3CCC[C@H](OC(=O)NC4(C)CC4)CC3)[nH]n2)on1 (single isomer, unassigned) [Example 24] | 0.1 to 0.25 µM
3 | Cc1cc(CC(=O)Nc2cc([C@H]3CC[C@@H](CC(=O)NC4(C)CC4)C3)[nH]n2)on1 (single isomer, unassigned) [Example 28] | 1 to 100 µM
4 | Cc1cc(CC(=O)Nc2cc([C@@H]3CC[C@@H](CC(=O)NC4(C)CC4)C3)[nH]n2)on1 (single isomer, unassigned) [Example 31] | 1 to 100 µM
5 | Cc1cc(CC(=O)Nc2ncn([C@@H]3CC[C@H](OC(=O)NC4(C)CC4)C3)n2)on1 (single isomer, unassigned) [Example 40] | 1 to 100 µM
6 | C=C(C)c1ccncc1O[C@@H]1CC[C@H](c2cc(NC(=O)Cc3cc(C)no3)n[nH]2)C1 (single isomer, unassigned) [Example 57] | ≤ 0.1 µM
7 | C=C(C)c1ccncc1O[C@H]1CC[C@@H](c2cc(NC(=O)Cc3cc(C)no3)n[nH]2)C1 (single isomer, unassigned) [Example 58] | ≤ 0.1 µM

Molecular target: target tagged with nanoLuciferase in 293-NB2 cells (Homo sapiens, UniProt P24941)
Assay: nanoBRET TE Intracellular Kinase Assay (Cell nanoBRET Assay)
Assay type: cell-based
Conditions: not given
Protocol: Compounds described herein were also tested in a nanoBRET TE Intracellular Kinase Assay. Test compounds were prepared in a DMSO stock solution. 45 uL of stock solution was transferred to a 384 well plate (Greiner, 781201), and a 3-fold 11-point dilution was performed. 293-NB2 cells expressing target tagged with nanoLuciferase were diluted in cell growth media (DMEM+10% FBS+1% Pen/Strep media) and a 40 uL cell solution of 7.5E4 cells/mL was seeded in a separate 384 well cell culture plate and incubated overnight at 37° C./5% CO2/100% humidity. […] 80 nL of each concentration of compound was transferred from the compound plate to a corresponding well in the cell culture plate by Echo550 liquid handler. The plates were incubated for 2 hrs at 37° C./5% CO2/100% humidity. […] Chemiluminescence was then read on an EnVision reader (PerkinElmer).

Row | Compound | IC50
8 | Cc1cc(CC(=O)Nc2cc([C@H]3CC[C@@H](OC(N)=O)C3)[nH]n2)on1 (racemic) [Example 4] | 1 to 100 µM
9 | Cc1cc(CC(=O)Nc2cc([C@@H]3CCC[C@H](OC(=O)NC4(C)CC4)CC3)[nH]n2)on1 (single isomer, unassigned) [Example 24] | 0.25 to 1 µM
10 | Cc1cc(CC(=O)Nc2cc([C@H]3CC[C@@H](CC(=O)NC4(C)CC4)C3)[nH]n2)on1 (single isomer, unassigned) [Example 28] | 1 to 100 µM
11 | Cc1cc(CC(=O)Nc2cc([C@@H]3CC[C@@H](CC(=O)NC4(C)CC4)C3)[nH]n2)on1 (single isomer, unassigned) [Example 31] | 1 to 100 µM
12 | Cc1cc(CC(=O)Nc2ncn([C@@H]3CC[C@H](OC(=O)NC4(C)CC4)C3)n2)on1 (single isomer, unassigned) [Example 40] | 1 to 100 µM
13 | C=C(C)c1ccncc1O[C@@H]1CC[C@H](c2cc(NC(=O)Cc3cc(C)no3)n[nH]2)C1 (single isomer, unassigned) [Example 57] | ≤ 0.1 µM
14 | C=C(C)c1ccncc1O[C@H]1CC[C@@H](c2cc(NC(=O)Cc3cc(C)no3)n[nH]2)C1 (single isomer, unassigned) [Example 58] | ≤ 0.1 µM

System: CDK2-independent (SKOV3, COV504, COV644) versus CDK2-dependent (COV318, OVCAR3, HCC1569) cell lines
Assay: Cell proliferation selectivity assay (CyQUANT Direct Cell Proliferation Assay)
Assay type: cell-based
Conditions: mean of IC50 ratios between each CDK2-independent versus CDK2-dependent cell line; 120 hours incubation
Protocol: Compounds described herein were also tested in cell proliferation selectivity assays. OVCAR3, HCC1569, and SKOV3 cell lines were obtained from ATCC and cultured as recommended by supplier. COV318, COV504, and COV644 cell lines were obtained from Sigma-Aldrich and were cultured as recommended by supplier. The genetic background and dependency of each cell line was determined using publicly available databases: cBioPortal and DepMap. […] All six cell lines are CDK1-dependent given that CDK1 is an essential gene. Proliferation assay was carried out by seeding cells into 384-well plates at predetermined density (ranging from 150 to 1500 cells per well) in corresponding culture media, followed by brief centrifugation at 1000×g, and culturing cells for 24 hours at 37° C., 5% CO2. The following day, compounds were serially diluted (1l-point, 3-fold dilution scheme with 20 μM as top concentration) and dispensed directly onto cells using Echo 555 acoustic liquid handler (Labcyte). The cells were incubated with the compounds at 37° C., 5% CO2 for 120 hours. Relative number of viable cells in each well was determined using CyQUANT Direct Cell Proliferation Assay Kit (Invitrogen) per manufacturers protocol. The plates were read on EnVision 2105 multimode plate reader (Perkin Elmer) using FITC filter set. Dose response curve fitting and IC50 calculation was done using Genedata Screener software. Proliferation selectivity (i.e. selectivity index) for individual compound was derived as a mean of its IC50 ratios between each CDK2-independent versus CDK2-dependent cell line.

Row | Compound | Proliferation selectivity Index
15 | COCc1cc2c(Nc3cc([C@H]4C[C@@H](OC(=O)N[C@@H](C)CC(F)(F)F)CO4)[nH]n3)nccn2n1 (single isomer, unassigned) [Example I-33] | 17.57
16 | COCc1cc2c(Nc3cc([C@H]4C[C@@H](OC(=O)N[C@]5(C)CC5(F)F)CO4)[nH]n3)nccn2n1 (single isomer, unassigned) [Example I-34] | 17.33
17 | CC[C@H](C)NC(=O)O[C@H]1CO[C@@H](c2cc(Nc3ccc4c(n3)C(C)(C)NC4=O)n[nH]2)C1 [Example I-1] | 54.25
18 | COCc1cc2c(Nc3cc([C@H]4C[C@@H](OC(=O)N5CCC5(C)C)CO4)[nH]n3)nccn2n1 [Example I-2] | 51.61
19 | C[C@H](NC(=O)O[C@H]1CO[C@@H](c2cc(Nc3ccc4c(n3)C(C)(C)NC4=O)n[nH]2)C1)C1CC1 [Example I-3] | 45.44
20 | CC1(NC(=O)O[C@H]2CO[C@@H](c3cc(Nc4ccn5nccc5n4)n[nH]3)C2)CC1 [Example I-5] | 32.74
21 | C=C(C)c1ccncc1O[C@H]1CC[C@@H](c2cc(NC(=O)Cc3cc(C)no3)n[nH]2)C1 [Example I-6] | 31.48
22 | CC1(NC(=O)O[C@@H]2CO[C@H](c3cc(Nc4nccc5nccn45)n[nH]3)C2)CC1 [Example I-7] | 27.71
23 | CC1(NC(=O)O[C@H]2CO[C@@H](c3cc(Nc4ccc5nccn5n4)n[nH]3)C2)CC1 [Example I-8] | 27.56
24 | COCc1cc2c(Nc3cc([C@H]4C[C@@H](OC(=O)N[C@@H](C)C(F)(F)F)CO4)[nH]n3)nccn2n1 [Example I-9] | 24.63
25 | COCC1(NC(=O)O[C@@H]2CO[C@H](c3cc(NC(=O)c4cc(COC(F)(F)F)nn4C)n[nH]3)C2)CC1 [Example I-12] | 23.98
26 | C[C@H](NC(=O)O[C@@H]1CO[C@H](c2cc(NC(=O)c3cc(COC(F)(F)F)nn3C)n[nH]2)C1)C1CC1 [Example I-13] | 23.74
27 | Cn1ncc2cnc(Nc3cc([C@H]4C[C@@H](OC(=O)NC5(C)CC5)CO4)[nH]n3)cc21 [Example I-14] | 23.53
28 | COCc1cc2c(Nc3cc([C@H]4C[C@@H](OC(=O)NC5(CC(F)(F)F)CC5)CO4)[nH]n3)nccn2n1 [Example I-15] | 23.43
29 | COCc1nc2ccnc(Nc3cc([C@H]4C[C@@H](OC(=O)NC(C)C)CO4)[nH]n3)c2s1 [Example I-16] | 22.96
30 | Cn1nc(COC(F)(F)F)cc1C(=O)Nc1cc([C@@H]2C[C@H](OC(=O)NC3(C)CC3)CO2)[nH]n1 [Example I-18] | 21.63
31 | CC(C)NC(=O)OC[C@H]1C[C@@H](c2cc(Nc3nccc4ncsc34)n[nH]2)C1 [Example I-22] | 19.69

Row | Compound | Proliferation selectivity Index
32 | COCc1cc2c(Nc3cc([C@H]4C[C@@H](OC(=O)N[C@H](C)C(F)(F)F)CO4)[nH]n3)nccn2n1 [Example I-23] | 19.67
33 | Cn1nc(COC(F)(F)F)cc1C(=O)Nc1cc([C@@H]2C[C@H](OC(=O)NC3(C)COC3)CO2)[nH]n1 [Example I-25] | 18.78
34 | COCc1cc2c(Nc3cc([C@@H]4C[C@H](Oc5nncn5C(C)(C)C)CO4)[nH]n3)nccn2n1 [Example I-26] | 18.65
35 | CC(C)NC(=O)OC[C@H]1C[C@@H](c2cc(NC(=O)c3cc(COC(F)(F)F)nn3C)n[nH]2)C1 [Example I-27] | 18.56
36 | COCc1cc2c(Nc3cc([C@H]4C[C@@H](OC(=O)NC(C)(C)C#N)CO4)[nH]n3)nccn2n1 [Example I-29] | 18.45
37 | Cn1nc(OCC(F)F)cc1C(=O)Nc1cc([C@H]2C[C@@H](OC(=O)NC34CC(C3)C4)CO2)[nH]n1 [Example I-30] | 18.27
38 | CC1(NC(=O)O[C@H]2CO[C@@H](c3cc(Nc4nccc5nccn45)n[nH]3)C2)CC1 [Example I-31] | 17.88
39 | CC(C)NC(=O)O[C@@H]1CO[C@H](c2cc(Nc3nccc4ncsc34)n[nH]2)C1 [Example I-32] | 17.60
40 | CCC1(NC(=O)O[C@H]2CO[C@@H](c3cc(Nc4nccn5nc(COC)cc45)n[nH]3)C2)CC1 [Example I-35] | 17.20
41 | C#CC1(NC(=O)O[C@H]2CO[C@@H](c3cc(Nc4nccn5nc(COC)cc45)n[nH]3)C2)CC1 [Example I-36] | 16.79
42 | COCc1cc2c(Nc3cc([C@H]4C[C@@H](Oc5nncn5C5(C(F)(F)F)CC5)CO4)[nH]n3)nccn2n1 [Example I-37] | 16.55
43 | COCc1cc2c(Nc3cc([C@H]4C[C@@H](OC(=O)NC(C)C)CO4)[nH]n3)nccn2n1 [Example I-38] | 16.55
44 | CC(C)n1cnnc1OC[C@H]1C[C@@H](c2cc(Nc3nccn4nccc34)n[nH]2)C1 [Example I-39] | 16.17
45 | COCc1cc2c(Nc3cc([C@@H]4C[C@H](Oc5nncn5C5(C)CC5)CO4)[nH]n3)nccn2n1 [Example I-40] | 16.06
46 | CC(C)NC(=O)O[C@H]1CO[C@@H](c2cc(Nc3nccc4ncsc34)n[nH]2)C1 [Example I-41] | 15.98
47 | COCc1cc2c(Nc3cc([C@H]4C[C@@H](OC(=O)NC(C)(C)C(F)(F)F)CO4)[nH]n3)nccn2n1 [Example I-42] | 15.77
